A value given as a limit tells only on which side of the number the result lay.

Data on 28 compounds can be found in patent US6429317B1, “Indane derivatives for antipsychotic compositions” (priority 1996, dated 2002).

The target of the first assay is T1, human m4 receptors (Homo sapiens, UniProt P08173).
T1 construct: expressed in transfected cells; host or cells: CHO K1
T1 sequence (P08173 whole entry): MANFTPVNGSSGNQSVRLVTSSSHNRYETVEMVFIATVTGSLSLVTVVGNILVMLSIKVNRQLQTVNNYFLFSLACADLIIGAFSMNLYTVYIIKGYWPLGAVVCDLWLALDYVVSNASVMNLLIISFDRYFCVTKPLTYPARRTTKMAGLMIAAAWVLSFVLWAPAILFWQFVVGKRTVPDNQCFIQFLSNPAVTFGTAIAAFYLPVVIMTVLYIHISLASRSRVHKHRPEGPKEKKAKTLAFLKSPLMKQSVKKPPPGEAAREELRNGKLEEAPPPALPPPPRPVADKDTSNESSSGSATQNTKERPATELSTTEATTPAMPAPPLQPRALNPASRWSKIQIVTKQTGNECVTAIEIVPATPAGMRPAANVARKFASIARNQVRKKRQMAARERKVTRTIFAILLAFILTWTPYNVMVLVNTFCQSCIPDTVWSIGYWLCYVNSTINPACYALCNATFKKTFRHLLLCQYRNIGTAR
Kind of assay: Cyclic AMP accumulation in pertussis toxin-treated CHO m4 cells. The following applies: stimulation of cyclic AMP production in CHO-m4 cells, forskolin present. In kind it is cell-based. As to the method:
Cyclic AMP Accumulation in Pertussis Toxin-Treated CHO m4 Cells.
CHO K1 cells transfected with human m4 receptors were grown to near confluency in T-150 flasks using Dulbecco's Modified Eagle Medium (DMEM) containing 10% fetal bovine serum. Cells were detached with 0.05% trypsin, […], and were suspended in medium containing 100 ng/ml pertussis toxin. Cells were plated at 30,000 cells per well into 96 well plates. Eighteen to twenty hours later the medium was removed and the cells were washed with serum-free medium. Attached cells were incubated at 37° C. for one hour after addition of […] of serum free DMEM containing 1 mM 3-isobutyl-1-methylxanthine and 1 mM forskolin plus or minus drugs being tested. Incubations were terminated with […] per well of serum free DMEM containing 0.3% triton-X-100. After stopping incubations the plates were allowed to sit for 20 minutes to extract cAMP and samples were then diluted 2.5-fold and were assayed using the scintillation proximity assay of Amersham (Arlington Heights, Ill).
Representative results from the M4 assay are as follows:
Stimulation of cyclic AMP production in CHO-m4cells.
`CCc1ccc(C(=O)NC2c3cc(N=CN(C)C)ccc3CC2O)cc1` (stereo not drawn) [Compound 67]: the “% Maximum Stimulation Compared to Oxotremorine-M” value was 7%.

`CN(C)C=Nc1ccc2c(c1)C(NC(=O)C(F)(F)F)C(O)C2` (stereo not drawn) [Compound 66]: the “% Maximum Stimulation Compared to Oxotremorine-M” value was determined as 0%.

For the compound `CN(C)C=Nc1ccc2c(c1)C(NC(=O)c1cc(Cl)cc(Cl)c1)C(O)C2` (stereo not drawn) [Compound 58], the “% Maximum Stimulation Compared to Oxotremorine-M” value is given as 74%. Consider `O=C(NC1c2cc(N=CN3CCCCC3)ccc2CC1O)c1cc(F)cc(F)c1` (stereo not drawn) [Compound 98], for which the “% Maximum Stimulation Compared to Oxotremorine-M” value turned out to be 73%. Same read-out and setting: the result for `CN(C)C=Nc1ccc2c(c1)C(NC(=O)C1CCCC1)C(O)C2` (stereo not drawn) [Compound 62] reads 27%. On the same count and under the same terms, then `CN(C)C=Nc1ccc2c(c1)C(NC(=O)c1cc(F)c(F)c(F)c1)C(O)C2` (stereo not drawn) [Compound 65], with 30%; and `CN(C)C=Nc1ccc2c(c1)C(NS(=O)(=O)c1ccc(Cl)c(Cl)c1)C(O)C2` (stereo not drawn) [Compound 72], with 4%.

Regarding `CN(C)C=Nc1ccc2c(c1)C(NC(=O)c1cccc3ccccc13)C(O)C2` (stereo not drawn) [Compound 71], the “% Maximum Stimulation Compared to Oxotremorine-M” value was found to be 95%. Turning to `O=C(NC1c2cc(N=CN3CCCC3)ccc2CC1O)c1c(Cl)cc(Cl)cc1Cl` (stereo not drawn) [Compound 47], the “% Maximum Stimulation Compared to Oxotremorine-M” value was below 20%. Take `CCCCc1ccc(C(=O)NC2c3cc(N=CN4CCCC4)ccc3CC2O)cc1` (stereo not drawn) [Compound 45]: the “% Maximum Stimulation Compared to Oxotremorine-M” value is given as below 20%. Same read-out and setting: the result for `CN(C)C=Nc1ccc2c(c1)C(NC(=O)c1cc(F)cc(C(F)(F)F)c1)C(O)C2` (stereo not drawn) [Compound 64] reads 52%. Regarding `CN(C)C=Nc1ccc2c(c1)C(NC(=O)c1ccc(Cl)nc1)C(O)C2` (stereo not drawn) [Compound 74], the “% Maximum Stimulation Compared to Oxotremorine-M” value came to 8%. On the same count and under the same terms, the result for `CCCCOc1ccc(C(=O)NC2c3cc(N=CN(C)C)ccc3CC2O)cc1` (stereo not drawn) [Compound 59] reads 22%. The same measure, in the same setting: then `O=C(NC1c2cc(N=CN3CCCC3)ccc2CC1O)c1c(Cl)cccc1Cl` (stereo not drawn) [Compound 46], with 154%; and `CCCCc1ccc(C(=O)NC2c3cc(N=CN(C)C)ccc3CC2O)cc1` (stereo not drawn) [Compound 70], with 18%. Still for that read-out and setting: the result for `CN(C)C=Nc1ccc2c(c1)C(NC(=O)c1ccc3ccccc3c1)C(O)C2` (stereo not drawn) [Compound 63] reads 13%; that for `CN(C)C=Nc1ccc2c(c1)C(NC(=O)c1ccc(C(F)(F)F)cc1)C(O)C2` (stereo not drawn) [Compound 75], 6%; that for `CN(C)C=Nc1ccc2c(c1)C(NC(=O)c1cc(C(F)(F)F)cc(C(F)(F)F)c1)C(O)C2` (stereo not drawn) [Compound 60], 100%. On to `CN(C)C=Nc1ccc2c(c1)C(NC(=O)c1cccc(C#N)c1)C(O)C2` (stereo not drawn) [Compound 61], for which the “% Maximum Stimulation Compared to Oxotremorine-M” value is 39%. For `O=C(NC1c2cc(N=CN3CCCCC3)ccc2CC1O)c1ccc(Cl)c(Cl)c1` (stereo not drawn) [Compound 77], the “% Maximum Stimulation Compared to Oxotremorine-M” value was 214%. The same measure, in the same setting: then `O=C(NC1c2cc(N=CN3CCCCC3)ccc2CC1O)c1cc(Cl)cc(Cl)c1` (stereo not drawn) [Compound 97], with 36%; and `O=C(NC1c2cc(N=CN3CCCCC3)ccc2CC1O)c1cccc(Cl)c1Cl` (stereo not drawn) [Compound 88], with 52%; and `CN(C)C=Nc1ccc2c(c1)C(NC(=O)c1ccccc1)C(O)C2` (stereo not drawn) [Compound 57], with 5%. In the case of `CN(C)C=Nc1ccc2c(c1)C(NC(=O)c1cccnc1Cl)C(O)C2` (stereo not drawn) [Compound 73], the “% Maximum Stimulation Compared to Oxotremorine-M” value is 11%. On to `CN(C)C=Nc1ccc2c(c1)C(NC(=O)c1sccc1Cl)C(O)C2` (stereo not drawn) [Compound 68], for which the “% Maximum Stimulation Compared to Oxotremorine-M” value is reported as 0%. `CC(=Nc1ccc2c(c1)C(NC(=O)c1ccc(Cl)c(Cl)c1)C(O)C2)N(C)C` (stereo not drawn) [Compound 76]: the “% Maximum Stimulation Compared to Oxotremorine-M” value came to 130%. Turning to `CN(C)C=Nc1ccc2c(c1)C(NC(=O)c1cc3ccccc3s1)C(O)C2` (stereo not drawn) [Compound 69], the “% Maximum Stimulation Compared to Oxotremorine-M” value turned out to be 14%.

The target in another assay is muscarinic receptor.
Assay: not given
The following applies: first of three sites (high affinity); read-out: affinity of site labeled by 3H-Oxo; cited from earlier work.
On to `C[N+](C)(C)CC#CCN1CCCC1=O` [^3H-Oxo, ^3H-Oxotremorine-M], for which the Kd was 1.8 nM.

Staying with this assay, now noted: second of three sites (medium affinity); read-out: affinity of site labeled by 3H-Oxo; cited from earlier work.
For `C[N+](C)(C)CC#CCN1CCCC1=O` [^3H-Oxo, ^3H-Oxotremorine-M], the Kd is 20 nM.

Staying with this assay, now noted: third of three sites (low affinity); read-out: affinity of site labeled by 3H-Oxo; cited from earlier work.
Consider `C[N+](C)(C)CC#CCN1CCCC1=O` [^3H-Oxo, ^3H-Oxotremorine-M], for which the Kd was 3000 nM.
